Measured values taken from patent publication US8536168B2 (Novartis AG, priority 2007, dated 2013).
Read-outs that look alike come from different tables or passages of the source.

Experiments:
[1] = biological target: human Smoothened receptor (Homo sapiens, UniProt Q99835); assay: Smo binding assay, displacement of radio-labeled smoothened agonist, filter binding format (human); conditions: displacement of small molecule agonist of Smoothened, read-out: Human Smo bdg., IC50
Description: A Smo binding assay was developed using radio-labeled smoothened agonist for compound competition. Table 9 lists the IC50 for displacement of a small molecule agonist of Smoothened determined in a filter binding format for the mouse and human Smoothened receptor.

[2] = biological target: mouse Smoothened receptor (Mus musculus, UniProt P56726); assay: Smo binding assay, displacement of radio-labeled smoothened agonist, filter binding format (mouse); conditions: displacement of small molecule agonist of Smoothened, read-out: Mouse Smo bdg., IC50
Description: A Smo binding assay was developed using radio-labeled smoothened agonist for compound competition.

Gli-luciferase activity = assay: Reporter gene assay (RGA) in TMHh12 cells, antagonism of Gli-luciferase activity in the presence of a Smo agonist; type: cell-based
Description: Activity of the compounds was evaluated using a reporter gene assay (RGA) in TMHh12 cells.

[3] = 25 nM small molecule Smo agonist, read-out: RGA (25 nM Smo agonist) IC50
[4] = read-out: RGA (1 nM Smo agonist) IC50, 1 nM small molecule Smo agonist

Chain of mouse Smoothened receptor (P56726 33-793): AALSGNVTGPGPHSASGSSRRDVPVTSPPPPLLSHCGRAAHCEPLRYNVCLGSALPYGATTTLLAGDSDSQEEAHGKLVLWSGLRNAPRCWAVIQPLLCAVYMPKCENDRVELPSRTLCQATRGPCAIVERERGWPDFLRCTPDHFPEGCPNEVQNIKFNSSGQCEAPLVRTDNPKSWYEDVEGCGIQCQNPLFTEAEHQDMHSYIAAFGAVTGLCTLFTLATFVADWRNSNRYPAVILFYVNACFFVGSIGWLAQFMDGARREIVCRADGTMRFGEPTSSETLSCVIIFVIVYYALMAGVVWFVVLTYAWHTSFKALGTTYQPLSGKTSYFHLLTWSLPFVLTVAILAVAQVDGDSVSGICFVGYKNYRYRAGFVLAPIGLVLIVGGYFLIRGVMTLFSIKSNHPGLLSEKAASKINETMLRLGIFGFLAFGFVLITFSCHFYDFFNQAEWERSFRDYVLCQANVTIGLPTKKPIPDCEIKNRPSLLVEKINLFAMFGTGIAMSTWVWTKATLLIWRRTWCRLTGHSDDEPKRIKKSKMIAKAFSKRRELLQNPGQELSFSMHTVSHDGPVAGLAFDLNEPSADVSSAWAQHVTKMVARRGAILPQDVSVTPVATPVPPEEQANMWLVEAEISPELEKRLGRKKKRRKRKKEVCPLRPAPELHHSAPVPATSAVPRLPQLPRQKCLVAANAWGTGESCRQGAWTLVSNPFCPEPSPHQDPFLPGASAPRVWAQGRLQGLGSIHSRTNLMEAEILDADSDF
Chain of human Smoothened receptor (Q99835 28-787): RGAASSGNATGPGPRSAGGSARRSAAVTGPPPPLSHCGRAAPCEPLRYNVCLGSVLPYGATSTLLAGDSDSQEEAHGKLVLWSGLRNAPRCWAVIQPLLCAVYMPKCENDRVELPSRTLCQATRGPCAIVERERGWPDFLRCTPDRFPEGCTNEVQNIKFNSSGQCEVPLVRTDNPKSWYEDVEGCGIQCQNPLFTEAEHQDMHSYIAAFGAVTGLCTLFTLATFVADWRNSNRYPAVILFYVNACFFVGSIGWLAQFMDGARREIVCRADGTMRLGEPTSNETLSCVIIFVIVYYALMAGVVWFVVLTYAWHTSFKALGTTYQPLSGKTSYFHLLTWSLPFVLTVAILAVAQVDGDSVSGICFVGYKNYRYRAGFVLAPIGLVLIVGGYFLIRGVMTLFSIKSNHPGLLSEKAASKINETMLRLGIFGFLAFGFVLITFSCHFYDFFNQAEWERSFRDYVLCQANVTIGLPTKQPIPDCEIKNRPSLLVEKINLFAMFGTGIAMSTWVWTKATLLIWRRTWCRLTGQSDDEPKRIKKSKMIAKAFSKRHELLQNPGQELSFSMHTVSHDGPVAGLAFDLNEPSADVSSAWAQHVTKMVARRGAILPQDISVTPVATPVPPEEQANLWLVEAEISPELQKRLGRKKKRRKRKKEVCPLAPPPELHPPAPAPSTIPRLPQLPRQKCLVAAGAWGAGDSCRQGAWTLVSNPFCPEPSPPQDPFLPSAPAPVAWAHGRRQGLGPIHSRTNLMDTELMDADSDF

| Structure (SMILES) | IC50 [1] [nM] | IC50 [2] [nM] | IC50 (Gli-luciferase activity; [3]) [nM] | IC50 (Gli-luciferase activity; [4]) [nM] |
| --- | --- | --- | --- | --- |
| N#Cc1ccc(N2CCN(c3nnc(Cc4ccccc4)c4ccccc34)CC2)nc1 [Example 1, 6-[4-(4-Benzyl-phthalazin-1-yl)-piperazin-1-yl]-nicotinonitrile] | 100 to 1000 | < 100 | 1000 to 10000 | < 100 |
| FC(F)(F)c1ccc(N2CCN(c3nnc(Cc4ccccc4)c4ccccc34)CC2)nc1 [Example 2] | < 100 | < 100 | 100 to 1000 | < 100 |
| CCOC(=O)c1ccc(N2CCN(c3nnc(Cc4ccccc4)c4ccccc34)CC2)cc1 [Example 5] | < 100 | < 100 | 100 to 1000 | < 100 |
| O=C(O)c1ccc(N2CCN(c3nnc(Cc4ccccc4)c4ccccc34)CC2)cc1 [Example 16] | 1000 to 10000 | 1000 to 10000 | 1000 to 10000 | 1000 to 10000 |
| N#Cc1cnc(N2CCN(c3nnc(Cc4ccccc4)c4ccccc34)CC2)nc1 [Example 39, 2-[4-(4-Benzyl-phthalazin-1-yl)-piperazin-1-yl]-pyrimidine-5-carbonitrile] | 100 to 1000 | 100 to 1000 | 100 to 1000 | < 100 |
| COc1cc(=O)[nH]c(N2CCN(c3nnc(Cc4ccccc4)c4ccccc34)CC2)n1 [Example 46] | 100 to 1000 | 100 to 1000 | 10000 to 40000 | 1000 to 10000 |
| Cc1cc(C)nc(N2CCN(c3nnc(Cc4ccccc4)c4ccccc34)CC2)n1 [Example 48] | 100 to 1000 | < 100 | 1000 to 10000 | < 100 |
| Fc1cc(Cl)cnc1N1CCN(c2nnc(Cc3ccccc3)c3ccccc23)CC1 [Example 49] | 100 to 1000 | 100 to 1000 | 100 to 1000 | < 100 |
| FC(F)(F)c1ccnc(N2CCN(c3nnc(Cc4ccccc4)c4ccccc34)CC2)n1 [Example 50] | 100 to 1000 | 100 to 1000 | 100 to 1000 | < 100 |
| Fc1cnc(F)c(N2CCN(c3nnc(Cc4ccccc4)c4ccccc34)CC2)c1 [Example 51] | 1000 to 10000 | 1000 to 10000 | 1000 to 10000 | 100 to 1000 |
| Fc1cnc(N2CCN(c3nnc(Cc4ccccc4)c4ccccc34)CC2)c(F)c1 [Example 52] | 100 to 1000 | 100 to 1000 | 1000 to 10000 | 100 to 1000 |
| NC(=O)c1ccc(N2CCN(c3nnc(Cc4ccccc4)c4ccccc34)CC2)nc1 [Example 53] | 100 to 1000 | 100 to 1000 | 100 to 1000 | < 100 |
| CCOC(=O)c1ccc(N2CCN(c3nnc(Cc4ccccc4)c4ccccc34)CC2)nc1 [Example 54] | < 100 | < 100 | 100 to 1000 | < 100 |
| CC(C)(O)c1ccc(N2CCN(c3nnc(Cc4ccccc4)c4ccccc34)CC2)nc1 [Example 54a, 2-{6-[4-(4-Benzyl-phthalazin-1-yl)-piperazin-1-yl]-pyridin-3-yl}-propan-2-ol] | < 100 | < 100 | < 100 | < 100 |
| CN(C)C(=O)c1cnc(N2CCN(c3nnc(Cc4ccccc4)c4ccccc34)CC2)nc1 [Example 54aa] | 100 to 1000 | 100 to 1000 | 100 to 1000 | < 100 |
| O=C(c1cnc(N2CCN(c3nnc(Cc4ccccc4)c4ccccc34)CC2)nc1)N1CCOCC1 [Example 54bb] | 100 to 1000 | < 100 | 100 to 1000 | < 100 |
| CN(CCO)C(=O)c1cnc(N2CCN(c3nnc(Cc4ccccc4)c4ccccc34)CC2)nc1 [Example 54cc] | 100 to 1000 | 100 to 1000 | 100 to 1000 | < 100 |
| CCN(CCO)C(=O)c1ccc(N2CCN(c3nnc(Cc4ccccc4)c4ccccc34)CC2)nc1 [Example 54d] | < 100 | < 100 | < 100 | < 100 |
| COCCNC(=O)c1ccc(N2CCN(c3nnc(Cc4ccccc4)c4ccccc34)CC2)nc1 [Example 54f] | – | 100 to 1000 | 100 to 1000 | 100 to 1000 |
| COCCN(C)C(=O)c1ccc(N2CCN(c3nnc(Cc4ccccc4)c4ccccc34)CC2)nc1 [Example 54g] | – | 100 to 1000 | 100 to 1000 | < 100 |
| CN1CCN(C(=O)c2ccc(N3CCN(c4nnc(Cc5ccccc5)c5ccccc45)CC3)nc2)CC1 [Example 54i] | 1000 to 10000 | 100 to 1000 | 1000 to 10000 | 100 to 1000 |
| O=C(c1ccc(N2CCN(c3nnc(Cc4ccccc4)c4ccccc34)CC2)nc1)N1CCOCC1 [Example 54k] | 100 to 1000 | < 100 | 100 to 1000 | < 100 |
| O=C(NCc1ccccc1)c1ccc(N2CCN(c3nnc(Cc4ccccc4)c4ccccc34)CC2)nc1 [Example 54l] | – | < 100 | 100 to 1000 | < 100 |
| O=C(NCC1CCCCC1)c1ccc(N2CCN(c3nnc(Cc4ccccc4)c4ccccc34)CC2)nc1 [Example 54m] | – | < 100 | 100 to 1000 | < 100 |

| Structure (SMILES) | IC50 [1] [nM] | IC50 [2] [nM] | IC50 (Gli-luciferase activity; [3]) [nM] | IC50 (Gli-luciferase activity; [4]) [nM] |
| --- | --- | --- | --- | --- |
| CCCNC(=O)c1ccc(N2CCN(c3nnc(Cc4ccccc4)c4ccccc34)CC2)nc1 [Example 54n] | – | < 100 | 100 to 1000 | < 100 |
| O=C(c1ccc(N2CCN(c3nnc(Cc4ccccc4)c4ccccc34)CC2)nc1)N1CCC(O)C1 (stereo not drawn) [Example 54o] | – | 100 to 1000 | 100 to 1000 | < 100 |
| O=C(c1ccc(N2CCN(c3nnc(Cc4ccccc4)c4ccccc34)CC2)nc1)N1CCSC1 [Example 54p] | – | < 100 | 100 to 1000 | < 100 |
| O=C(c1ccc(N2CCN(c3nnc(Cc4ccccc4)c4ccccc34)CC2)nc1)N1CC[S+]([O-])C1 (stereo not drawn) [Example 54q] | 100 to 1000 | 100 to 1000 | 100 to 1000 | < 100 |
| COC(=O)CNC(=O)c1ccc(N2CCN(c3nnc(Cc4ccccc4)c4ccccc34)CC2)nc1 [Example 54r] | 100 to 1000 | < 100 | 100 to 1000 | 100 to 1000 |
| CN(C)C(=O)c1ccc(N2CCN(c3nnc(Cc4ccccc4)c4ccccc34)CC2)nc1 [Example 54s] | 100 to 1000 | < 100 | 100 to 1000 | < 100 |
| CN(CCCO)C(=O)c1ccc(N2CCN(c3nnc(Cc4ccccc4)c4ccccc34)CC2)nc1 [Example 54t] | 100 to 1000 | < 100 | 100 to 1000 | < 100 |
| CC(C)(O)CNC(=O)c1ccc(N2CCN(c3nnc(Cc4ccccc4)c4ccccc34)CC2)nc1 [Example 54u] | 100 to 1000 | < 100 | 100 to 1000 | < 100 |
| NCc1ccc(N2CCN(c3nnc(Cc4ccccc4)c4ccccc34)CC2)cc1 [Example 73] | – | 100 to 1000 | 1000 to 10000 | 100 to 1000 |
| CC(=O)NCc1ccc(N2CCN(c3nnc(Cc4ccccc4)c4ccccc34)CC2)cc1 [Example 75] | – | 100 to 1000 | 1000 to 10000 | 100 to 1000 |
| CC(=O)NCc1ccc(N2CCN(c3nnc(Cc4ccncc4)c4ccccc34)CC2)cc1 [Example 76] | – | 10000 to 40000 | 10000 to 40000 | 1000 to 10000 |
| O=C(NCc1ccc(N2CCN(c3nnc(Cc4ccccc4)c4ccccc34)CC2)cc1)OCc1ccccc1 [Example 77] | – | 100 to 1000 | 1000 to 10000 | 100 to 1000 |
| O=C(NCc1ccc(N2CCN(c3nnc(Cc4ccncc4)c4ccccc34)CC2)cc1)OCc1ccccc1 [Example 78] | – | 1000 to 10000 | 10000 to 40000 | 1000 to 10000 |
| Cc1cc(N2CCN(c3ccc(C#N)cn3)CC2)nnc1Cc1ccc(Cl)cc1 [Example 93] | – | < 100 | – | 100 to 1000 |
| Cc1c(Cc2ccc(F)cc2)nnc(N2CCN(c3ccc(C#N)cn3)CC2)c1C [Example 93a] | – | < 100 | 100 to 1000 | 100 to 1000 |
| COC(=O)c1cnc(N2CCN(c3nnc(Cc4ccccc4)c4ccccc34)CC2)nc1 [Example 140] | – | 100 to 1000 | 1000 to 10000 | 1000 to 10000 |
| COC(=O)c1cnc(N2CCN(c3nnc(Cc4ccccc4)c4ccccc34)C[C@H]2C)cn1 [Example 145, (R)-4-(4-Benzyl-phthalazin-1-yl)-2-methyl-3,4,5,6-tetrahydro-2H-[1,2′]bipyrazinyl-5′-carboxylic acid methyl ester] | < 100 | – | 100 to 1000 | < 100 |
| CC(=O)c1cnc(N2CCN(c3nnc(Cc4ccccc4)c4ccccc34)CC2)cn1 [Example 153] | – | < 100 | 100 to 1000 | < 100 |
| OCc1ccc(N2CCN(c3nnc(Cc4ccccc4)c4ccccc34)CC2)nc1 [Example 158] | – | 100 to 1000 | 1000 to 10000 | 100 to 1000 |
| CN(C)C(=O)c1ccc(N2CCN(c3nnc(Cc4ccc(F)cc4F)c4ccccc34)CC2)nc1 [Example 202] | – | < 100 | 100 to 1000 | < 100 |
| CS(=O)(=O)NCc1ccc(N2CCN(c3nnc(Cc4ccccc4)c4ccccc34)CC2)nc1 [Example 205] | – | < 100 | 100 to 1000 | 100 to 1000 |
| CNC(=O)NCc1ccc(N2CCN(c3nnc(Cc4ccccc4)c4ccccc34)CC2)nc1 [Example 206] | – | 100 to 1000 | 100 to 1000 | < 100 |
| CC(=O)Nc1ccc(N2CCN(c3nnc(Cc4ccccc4)c4ccccc34)CC2)nc1 [Example 236] | – | 100 to 1000 | 100 to 1000 | 100 to 1000 |
| CC(=O)Nc1cnc(N2CCN(c3nnc(Cc4ccccc4)c4ccccc34)CC2)nc1 [Example 237, N-{2-[4-(4-Benzyl-phthalazin-1-yl)-piperazin-1-yl]-pyrimidin-5-yl}-acetamide] | – | 100 to 1000 | 100 to 1000 | 100 to 1000 |
